Melting point data for 91 compounds are collected here from a melting point compilation (Tetko et al.; mined from patent text by program, amines drawn as free bases though some values may be those of a salt).

The structures appear in SMILES notation.

`N#CNC(=NCCO[N+](=O)[O-])c1ccc(N)nc1`: the melting point is 108 °C. With `O=C(O)C(Cc1ccc(OCCn2c(=O)sc3cc(C(=NO)C4CC4)ccc32)cc1)OCC(F)(F)F` (stereo unspecified), the melting point lay within 88 to 90 °C. As for `O=C(c1ccccc1F)c1cc(Br)ccc1NC(=O)C(F)(F)F`, the figure is 132 °C; as for `CCCCc1nc2ccccc2n1Cc1ccc(C(=O)O)cc1F`, 224 to 226 °C. `COC(=O)c1cc(NC(=O)OC(C)(C)C)c(N)cc1I`: the melting point lay in the range of 60 to 78 °C. In the case of `CC(C)c1ccc2nc3ccc(C#N)cc3c(=O)n2c1`, the melting point lay in the range of 207 to 211 °C. With `CC(C(=O)NCC(COC(=O)C(C)(C)C)Cc1ccc(C(C)(C)C)cc1)c1ccc(NS(C)(=O)=O)c(Cl)c1` (stereo unspecified), the melting point was 61 to 63 °C. The compound `COC(=O)Cc1nc(N)cc(OC)n1` yielded a melting point of 91 to 94 °C. As to `O=C(Nc1ccncn1)Nc1cccc2c1C1CCCCN1C2=O` (stereo unspecified), the melting point is 218 °C. In turn, `CCOC(=O)Cc1ccc2c(c1)C(=O)c1ccccc1CN2` showed a melting point of 98 to 100 °C. `COc1ccc(CN2CCC(NC(=O)OC(C)(C)C)CC2)cc1`: the melting point was 95 to 97 °C. `COc1ccc(C)cc1N1CCN(C(=O)Nc2cc3ccccc3nc2OC)CC1` gave a melting point of 115 to 116 °C. `CCc1cccc(CC)c1NC(=O)c1c(C)oc(C)cc1=O` showed a melting point of 83.5 to 84.5 °C. The compound `O=C(OCc1ccccc1)C(C(=O)OCc1ccccc1)c1ncc(C(F)(F)F)cc1[N+](=O)[O-]` had a melting point of 82 to 84 °C. `CCCCOc1cc2c(cc1C(=O)NC)CC(N(CCC)CCC)C2` (stereo unspecified) showed a melting point of 129 to 130 °C. For `C[C@@H]1CNC(=O)c2cc3c(Cl)cccc3n21`, the melting point was in the range of 180 to 184 °C.

On to `COc1ccc(-c2nc(N)sc2CCN2CC=C(c3ccccc3)CC2)cc1`, for which the melting point was 163 °C. As to `Cc1csc(C(=O)CCc2ccccc2)c1OCCN(C)C`, the melting point lay in the range of 106 to 108 °C. `Cc1oc2c(C)c(C)c(N3Cc4ccccc4C3)c(C)c2c1-c1ccc(C(C)C)cc1` yielded a melting point of 126 to 129 °C. Consider `COc1ccc2[nH]c(-c3cccc(C)c3)cc(=O)c2c1`, for which the melting point was in the range of 262 to 264 °C. As for `CNC(=O)c1ccc(F)c(F)c1`, the melting point fell in the range of 143 to 145 °C. Consider `Cc1ccnc(C)c1Cn1nnnc1-c1cccc(Cl)c1Cl`, for which the melting point lay within 146 to 148 °C. Consider `CNc1ncc(S(=O)(=O)NC(=O)NC(C)C)c(Nc2cccc(C)c2)n1`, for which the melting point lay within 206 to 207 °C. As to `CC(=O)OCc1ccc(N(c2ccccc2)c2ccc(C=CC=O)cc2)cc1`, the melting point was in the range of 112 to 115 °C.

Take `CCOc1cc(CCNC(=S)Nc2nccs2)ccc1OC`: the melting point lay within 150 to 152 °C. In the case of `COc1ccc(CCN2C=CC=C3C2=Nc2cc(C(F)(F)F)ccc2S(=O)(=O)N3C)cc1`, the melting point was 43 to 44 °C. As for `O=C1Cc2ccccc2SN1`, the figure is 175 °C; as for `CSc1cnc(OCCOc2ncnc(NS(=O)(=O)c3ccc(C(C)(C)C)cc3)c2Br)nc1`, 120 to 121 °C.

Turning to `CCOC(=O)C(CC(=O)O)(Cc1cn(C)c2ccccc12)C(=O)OCC`, the melting point was 127 to 130 °C. Compound `CCCc1c(OCCCOc2ccc3c(c2CCC)OC(CCC(=O)O)CC3)ccc(C(C)=O)c1O` (stereo unspecified) came in with a melting point of 109 to 110 °C. Under `COc1nc(-c2ccccc2F)c2ccsc2n1` stands 175 to 176 °C; under `Cc1ccnc2c1N=C(n1ccnc1)c1cccnc1N2C1CC1`, 198 to 200 °C. `O=C(c1ccc(Cl)cc1)c1ccc2c(c1)C(c1cccc(Cl)c1)=NCC(=S)N2` returned a melting point of 125 °C. As for `OCc1ccc(-c2cc3nccnc3[nH]2)cc1`, the figure is 284 to 285 °C.

On to `CC(Oc1cc2c(c(Cl)c1Cl)C(=O)C(C)(C1CCCC1)C2)C(=O)O` (stereo unspecified), for which the melting point lay in the range of 140 to 142 °C. The compound `CCNc1nnc(C(C)(C)C)c(=O)n1N` had a melting point of 177 °C. As to `O=C(C=Cc1cccnc1)NCCCCN1CCCN(C(c2ccccc2)c2ccccc2)CC1`, the melting point was in the range of 149 to 151 °C.

For the compound `Cc1ccnc(-c2ccc(C(F)(F)F)cc2)n1`, the melting point amounted to 50 °C.

`CCc1cc(C(=O)OC)n(C)n1` returned a melting point of 162 to 165 °C. Under `O=C(O)c1cn(-c2cccc(F)c2)c2c(F)c(F)c(F)cc2c1=O` stands 89 to 91 °C. With `Nc1ccc(C2CCN(c3ccncc3)CC2)cc1`, the melting point lay within 196 to 197 °C. As to `CC(C)(C)OC(=O)NNc1ccc2ccccc2n1`, the melting point lay in the range of 148 to 150 °C. `Cc1c(N)c(C)c2c(-c3ccc(C4CCCCC4)cc3)coc2c1C` came in with a melting point of 139 to 140 °C. In turn, `NC(=O)OCC1COC(C(F)(F)F)(C(F)(F)F)O1` (stereo unspecified) displayed a melting point of 52 to 54 °C. The compound `CCOC(=O)Nc1ccc(NCc2coc3ccc(F)cc23)cc1N` showed a melting point of 150 to 151 °C. `O=C1NC(=O)C(Cc2ccc(OC[C@@H]3CCCN3c3nc4ccccc4s3)cc2)S1` (stereo partly specified) registered a melting point of 95 °C.

In the case of `COC(=O)c1c(-c2ccccc2)[nH]c(-c2ccncc2)c1C`, the melting point was 202 to 204 °C. Under `O=S(=O)(N[C@H](CO)[C@@H](c1ccccc1)C(F)(F)F)c1ccc(Cl)cc1` stands 129 to 131 °C.

Compound `Cc1nc(Cc2ccc(N)cc2)sc1C` gave a melting point of 91 to 92 °C.

Consider `COC(=O)c1ccc(C=CC(=O)Nc2cnc3c(C)cc(C)cc3c2-c2ccccc2Cl)cc1`, for which the melting point was in the range of 225 to 226 °C. `CCCN(CCC)C1Cc2cccc3c2N(C1)C(=O)CN3` (stereo unspecified) came in with a melting point of 97 to 99 °C. Regarding `CCN(Cc1sc(-c2ccc(C(F)(F)F)cc2)nc1C)c1cc(C)c(OCC(=O)O)c(C)c1`, the melting point fell in the range of 161 to 162 °C. For the compound `O=C1COCCOCC(=O)NCCOCCOCCOCCN1`, the melting point was in the range of 90 to 91 °C. In turn, `CN1CCN(c2cc(Cl)cc3[nH]c(=O)n(Cc4ccccc4)c(=O)c23)CC1` returned a melting point of 208 to 210 °C.

As to `CCOC(=O)C1(C(=O)OCC)OC(=O)c2ncccc2C1(O)c1ccccc1` (stereo unspecified), the melting point lay within 146 to 147 °C.

In the case of `O=c1[nH]c(N2CCN(Cc3ccccc3)C(CO)C2)cc2ccccc12` (stereo unspecified), the melting point lay in the range of 176 to 177 °C. With `CC(C)CN(CCCc1ccc(F)cc1)[C@H]1CC[C@H](c2ccc3[nH]c(=O)oc3c2)CC1`, the melting point lay in the range of 199 to 201 °C. In turn, `COc1cc2ncnc(N3CCN(C(=S)Nc4ccc(C(F)(F)F)cc4)CC3)c2cc1OC` returned a melting point of 117 to 119 °C. For the compound `COc1c(O)cc(C)c(OC(=O)c2ccccc2)c1OC`, the melting point lay in the range of 109 to 111 °C. Compound `CC(=O)C1=CCC2C3CCC4=CC(=O)CCC4(C)C3(F)C(=O)CC12C` (stereo unspecified) registered a melting point of 208 to 211 °C. Compound `CCCCc1nc2c(=O)n(Cc3ccc(-c4ccccc4C#N)cc3)ccc2n1Cc1ccc(-c2ccccc2C#N)cc1` registered a melting point of 83 °C. As for `CCCCCCc1cn(C)cc(-c2cccc(C(F)(F)F)c2)c1=O`, the figure is 89.5 to 90.5 °C.

Turning to `Cc1cn(C(C(=O)N(C)C)c2ccccc2)nc1-c1ccccc1` (stereo unspecified), the melting point lay within 136 to 138 °C. In the case of `CC(=O)Nc1ccc(C(C)=O)cc1CN(C)C`, the melting point lay within 68 to 72 °C. `Oc1ccc(O)c(O)c1O`: the melting point was in the range of 162 to 164 °C. In turn, `CC(=Cc1ccc(F)cc1)c1ccc2c(c1)C(C)(C)CCC2(C)C` had a melting point of 99 to 101 °C.

With `COC(=O)c1cc(C=O)cnc1C1=NC(C)(C(C)C)C(=O)N1` (stereo unspecified), the melting point lay within 113 to 117 °C. The compound `CC(C(=O)NCCN(C)C)n1c(-c2ccc(Cl)cc2)nc2cccnc21` (stereo unspecified) displayed a melting point of 130 to 133 °C.

`CC(=NC(=Nc1ccccc1)N1CCOCC1)NCc1ccccc1` yielded a melting point of 126 to 129 °C. `O[C@@H]1CCC(c2ccccc2)(c2ccccc2)[C@@H]2CN(Cc3ccccc3)C[C@H]12` yielded a melting point of 154 °C.

`Cc1ccc(-c2cn(C)cc(-c3ccccc3)c2=O)c(C)c1` yielded a melting point of 153 to 155 °C. `CSc1ccc(CSc2nnc(-c3ccc4c(c3)CCO4)o2)cc1C(F)(F)F` gave a melting point of 108 to 109 °C.

`CC[C@H](Cn1cnnn1)n1cnc2cc3c(=O)n([C@H](CC)Cn4cnnn4)nnc3cc2c1=O`: the melting point fell in the range of 80 to 81 °C.

On to `N#Cc1cnn2c1N(C(=O)CN1CCN(Cc3ccccc3F)CC1)CC=C2c1cccc(C(F)(F)F)c1`, for which the melting point is 188 to 190 °C. In turn, `COC(=O)C#CC(=O)c1ccc(OC)cc1` showed a melting point of 68 °C.

`CCOC(=O)c1cn(-c2ccc(OC)cc2)c(-c2ccc(OC)cc2)n1` returned a melting point of 142 to 143 °C. As to `CCCCCCCCCCCCCCOc1ccc(CC(CO)CC2(C)OCCO2)cc1` (stereo unspecified), the melting point was 28 to 29 °C. Take `CC(=O)c1cc(Cl)c(N)cc1F`: the melting point is 97 to 98 °C.

Take `CCCCc1nc2c(N)nc3cccnc3c2n1CCCCNC(=O)Cn1cc(C)c(O)nc1=O`: the melting point was in the range of 242 to 244 °C. Under `CC1CCOP(C)(=O)C1` (stereo unspecified) stands 78 to 83 °C; under `COc1cc2cc(CC(C)(C(N)=O)c3ccc(C#N)cc3)sc2cc1OC` (stereo unspecified), 178 to 180 °C.

In the case of `COCCOC[C@H](CC1(C(=O)O)CCCC1)C(=O)Oc1ccc2c(c1)CCC2`, the melting point fell in the range of 111 to 113 °C. Turning to `COc1ccc(C(=C2CN(C(c3ccccc3)c3ccccc3)C2)S(C)(=O)=O)cc1`, the melting point stood at 181 °C.

As for `Nc1cn(-c2cccnc2)nc1Br`, the melting point lay within 143 to 146 °C. For `CC(=O)OC(C)C1CCC2C3CC=C4C=CCCC4(C)C3CCC12C` (stereo unspecified), the melting point was in the range of 103 to 104 °C. `CC1(C)CCC(C)(C)c2cc(-c3cccc(-c4ccc(C(=O)O)cc4)c3O)ccc21` came in with a melting point of 121 °C. For the compound `COc1cc2c3c(n(C)c(=O)c2cc1OC)-c1cc2c(cc1C3=CCCCBr)OCO2`, the melting point lay in the range of 197 to 199 °C. As to `OCc1cn(-c2cc(F)cc(C(F)(F)F)c2)cn1`, the melting point is 144 to 145 °C. As for `CCCOC(=O)c1ccc(OCCCCCCCc2cc(C)no2)cc1`, the figure is 54 °C; as for `CC1(C)Oc2ccc(C#N)cc2C(Oc2ccnnc2)C1(C)O` (stereo unspecified), 103 to 105 °C.

The compound `O=C(NCCCC1OCC(c2cccc3ccccc23)CO1)C(F)(F)F` (stereo unspecified) displayed a melting point of 83 to 84 °C.
